Assay results from article PMC8222254, “Self-assembly of an anion receptor with metal-dependent kinase inhibition and potent in vitro anti-cancer properties” (Nature Communications, 2021).
“And” between values parts separate entries of the source, which are not always exact repeats. Equal entries are not always repeated.

What was measured:
Assay in all cases: Kinase inhibition screen, cell-free 33P ATP assay at 10 μM
Assay type in all cases: biochemical
[1] = target: 140 purified human kinases (Homo sapiens, UniProt Q9Y4K4)
Method in brief: (§1)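 Each complex tested in duplicate at 10 μM; cell-free radiometric assay using ^33P ATP on purified enzymes. Hits mapped by HGNC symbol onto the kinome tree.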

[2] = target: T1, 140 purified human kinases (Homo sapiens, UniProt Q8IYT8)
T1 sequence (Q8IYT8 1-1036): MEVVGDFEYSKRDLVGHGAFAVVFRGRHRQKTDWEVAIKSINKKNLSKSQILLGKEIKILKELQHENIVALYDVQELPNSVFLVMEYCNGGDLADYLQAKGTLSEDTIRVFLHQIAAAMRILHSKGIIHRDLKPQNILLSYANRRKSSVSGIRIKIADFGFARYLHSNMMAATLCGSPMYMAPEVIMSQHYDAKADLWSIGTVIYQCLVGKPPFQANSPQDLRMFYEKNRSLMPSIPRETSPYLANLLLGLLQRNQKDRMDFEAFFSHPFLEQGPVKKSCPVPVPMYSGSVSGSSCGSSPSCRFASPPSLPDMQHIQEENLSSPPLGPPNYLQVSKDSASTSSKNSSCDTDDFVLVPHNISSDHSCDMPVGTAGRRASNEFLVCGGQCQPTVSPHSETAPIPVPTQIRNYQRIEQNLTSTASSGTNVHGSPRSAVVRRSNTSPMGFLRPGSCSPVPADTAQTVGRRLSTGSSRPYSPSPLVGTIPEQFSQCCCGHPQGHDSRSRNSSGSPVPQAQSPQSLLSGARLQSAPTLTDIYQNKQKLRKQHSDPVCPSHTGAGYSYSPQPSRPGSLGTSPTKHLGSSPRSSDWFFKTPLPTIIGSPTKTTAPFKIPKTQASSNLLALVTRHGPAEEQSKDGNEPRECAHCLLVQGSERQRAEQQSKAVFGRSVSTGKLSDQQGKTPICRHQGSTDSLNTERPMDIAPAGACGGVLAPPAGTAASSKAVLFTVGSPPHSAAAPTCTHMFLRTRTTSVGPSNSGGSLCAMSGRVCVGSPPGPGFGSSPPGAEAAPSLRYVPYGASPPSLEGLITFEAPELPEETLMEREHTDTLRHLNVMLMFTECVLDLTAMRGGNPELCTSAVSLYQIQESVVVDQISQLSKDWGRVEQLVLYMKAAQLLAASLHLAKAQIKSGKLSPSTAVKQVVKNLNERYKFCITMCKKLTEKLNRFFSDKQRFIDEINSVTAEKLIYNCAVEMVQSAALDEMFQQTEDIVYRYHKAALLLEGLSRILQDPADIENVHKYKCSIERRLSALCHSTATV
Method in brief: as §1

[3] = target: 140 purified human kinases (Homo sapiens, UniProt Q9HC98)
Method in brief: as §1

[4] = target: 140 purified human kinases (Homo sapiens, UniProt Q86V86)
Method in brief: as §1

[5] = target: 140 purified human kinases (Homo sapiens, UniProt Q96SB4)
Method in brief: as §1

[6] = target: T2, 140 purified human kinases (Homo sapiens, UniProt Q15139)
T2 sequence (Q15139 1-912): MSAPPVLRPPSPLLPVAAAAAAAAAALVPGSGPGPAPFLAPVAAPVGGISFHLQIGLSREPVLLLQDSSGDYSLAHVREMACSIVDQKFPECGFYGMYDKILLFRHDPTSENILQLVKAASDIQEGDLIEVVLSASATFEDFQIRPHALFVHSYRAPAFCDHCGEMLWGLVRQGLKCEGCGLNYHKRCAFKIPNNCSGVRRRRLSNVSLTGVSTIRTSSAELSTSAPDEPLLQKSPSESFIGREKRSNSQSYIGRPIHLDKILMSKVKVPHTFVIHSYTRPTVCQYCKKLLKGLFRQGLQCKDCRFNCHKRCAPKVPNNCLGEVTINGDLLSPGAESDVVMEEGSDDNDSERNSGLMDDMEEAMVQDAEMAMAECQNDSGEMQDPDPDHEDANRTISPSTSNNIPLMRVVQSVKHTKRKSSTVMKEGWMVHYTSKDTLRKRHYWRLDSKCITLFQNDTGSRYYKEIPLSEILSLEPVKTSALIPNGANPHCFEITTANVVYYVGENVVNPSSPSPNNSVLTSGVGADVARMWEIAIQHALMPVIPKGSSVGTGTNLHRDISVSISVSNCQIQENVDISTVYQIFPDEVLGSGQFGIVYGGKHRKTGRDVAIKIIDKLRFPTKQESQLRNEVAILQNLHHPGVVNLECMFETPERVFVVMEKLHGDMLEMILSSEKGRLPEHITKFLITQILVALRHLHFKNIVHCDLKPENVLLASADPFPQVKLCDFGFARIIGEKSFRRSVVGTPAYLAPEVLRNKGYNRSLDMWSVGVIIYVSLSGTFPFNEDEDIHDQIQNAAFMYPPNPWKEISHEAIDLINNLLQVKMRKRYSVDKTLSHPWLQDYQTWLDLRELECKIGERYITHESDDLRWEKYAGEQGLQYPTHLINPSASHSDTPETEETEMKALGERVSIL
Method in brief: as §1

[7] = target: 140 purified human kinases (Homo sapiens, UniProt Q9BUB5)
Method in brief: as §1

Sequence of 140 purified human kinases (Homo sapiens, UniProt Q9Y4K4) (Q9Y4K4 whole entry): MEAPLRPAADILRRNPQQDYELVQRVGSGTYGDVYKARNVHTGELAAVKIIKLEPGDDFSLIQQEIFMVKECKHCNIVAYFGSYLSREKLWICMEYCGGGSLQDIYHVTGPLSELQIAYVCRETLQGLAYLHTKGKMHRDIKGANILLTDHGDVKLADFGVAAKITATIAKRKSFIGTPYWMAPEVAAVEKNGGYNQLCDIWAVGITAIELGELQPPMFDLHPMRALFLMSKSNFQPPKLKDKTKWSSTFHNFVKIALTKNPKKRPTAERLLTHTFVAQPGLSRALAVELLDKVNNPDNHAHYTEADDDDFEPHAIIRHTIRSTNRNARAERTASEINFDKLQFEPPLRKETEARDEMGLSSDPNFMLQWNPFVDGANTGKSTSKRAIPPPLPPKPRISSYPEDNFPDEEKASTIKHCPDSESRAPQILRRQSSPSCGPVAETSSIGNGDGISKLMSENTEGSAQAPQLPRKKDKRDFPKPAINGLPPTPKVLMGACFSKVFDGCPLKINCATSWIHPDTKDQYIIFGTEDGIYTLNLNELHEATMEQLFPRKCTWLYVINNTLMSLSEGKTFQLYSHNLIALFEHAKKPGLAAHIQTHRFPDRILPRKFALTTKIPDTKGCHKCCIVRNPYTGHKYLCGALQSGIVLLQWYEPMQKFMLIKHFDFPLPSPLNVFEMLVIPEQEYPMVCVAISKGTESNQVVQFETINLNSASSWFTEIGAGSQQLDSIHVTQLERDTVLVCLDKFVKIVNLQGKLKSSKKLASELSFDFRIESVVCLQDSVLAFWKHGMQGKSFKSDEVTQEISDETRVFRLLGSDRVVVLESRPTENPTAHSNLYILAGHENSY
Sequence of 140 purified human kinases (Homo sapiens, UniProt Q9BUB5) (Q9BUB5 whole entry): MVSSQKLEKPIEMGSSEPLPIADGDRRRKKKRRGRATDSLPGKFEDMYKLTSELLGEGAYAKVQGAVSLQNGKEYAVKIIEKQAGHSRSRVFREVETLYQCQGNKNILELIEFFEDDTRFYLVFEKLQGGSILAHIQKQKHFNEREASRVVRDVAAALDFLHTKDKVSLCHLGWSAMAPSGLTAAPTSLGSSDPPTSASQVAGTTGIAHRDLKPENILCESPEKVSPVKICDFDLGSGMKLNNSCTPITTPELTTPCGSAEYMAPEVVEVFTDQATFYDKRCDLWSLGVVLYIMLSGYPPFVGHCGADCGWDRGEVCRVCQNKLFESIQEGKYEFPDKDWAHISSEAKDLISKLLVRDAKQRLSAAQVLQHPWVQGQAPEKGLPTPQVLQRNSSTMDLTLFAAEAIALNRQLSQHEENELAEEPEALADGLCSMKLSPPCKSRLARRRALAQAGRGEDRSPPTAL
Sequence of 140 purified human kinases (Homo sapiens, UniProt Q96SB4) (Q96SB4 whole entry): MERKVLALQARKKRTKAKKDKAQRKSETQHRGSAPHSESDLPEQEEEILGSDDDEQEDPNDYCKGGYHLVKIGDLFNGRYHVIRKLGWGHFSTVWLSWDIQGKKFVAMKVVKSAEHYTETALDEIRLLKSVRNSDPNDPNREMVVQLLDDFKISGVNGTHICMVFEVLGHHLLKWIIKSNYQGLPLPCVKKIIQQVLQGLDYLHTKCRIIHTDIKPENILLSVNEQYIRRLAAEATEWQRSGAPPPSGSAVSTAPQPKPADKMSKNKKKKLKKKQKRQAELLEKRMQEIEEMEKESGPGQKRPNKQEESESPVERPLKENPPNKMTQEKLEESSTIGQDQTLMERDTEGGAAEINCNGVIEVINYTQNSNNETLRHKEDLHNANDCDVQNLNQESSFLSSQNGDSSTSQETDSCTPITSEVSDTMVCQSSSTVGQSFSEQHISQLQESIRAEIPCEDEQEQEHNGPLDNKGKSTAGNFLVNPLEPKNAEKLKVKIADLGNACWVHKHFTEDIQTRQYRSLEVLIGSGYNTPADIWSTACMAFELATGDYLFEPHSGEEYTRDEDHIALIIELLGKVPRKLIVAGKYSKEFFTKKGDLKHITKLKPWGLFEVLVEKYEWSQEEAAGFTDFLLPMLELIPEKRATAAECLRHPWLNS
Sequence of 140 purified human kinases (Homo sapiens, UniProt Q9HC98) (Q9HC98 whole entry): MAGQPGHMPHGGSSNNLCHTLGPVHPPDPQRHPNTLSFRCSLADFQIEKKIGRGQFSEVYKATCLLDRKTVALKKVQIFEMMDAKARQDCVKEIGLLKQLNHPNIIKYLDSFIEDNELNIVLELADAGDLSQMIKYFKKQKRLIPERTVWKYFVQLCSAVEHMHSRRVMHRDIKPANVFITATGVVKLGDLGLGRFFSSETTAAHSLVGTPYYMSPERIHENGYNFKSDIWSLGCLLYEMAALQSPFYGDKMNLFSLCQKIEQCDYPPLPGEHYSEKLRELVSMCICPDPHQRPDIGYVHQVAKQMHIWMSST

Q: Which “% Inhibition Run 1” value ([1]; MAP4K5) does the source give for `[Cu+2].[Cu+2].[Cu+2].c1ccc(-c2csc(NCCN(CCNc3nc(-c4ccccn4)cs3)CCNc3nc(-c4ccccn4)cs3)n2)nc1.c1ccc(-c2csc(NCCN(CCNc3nc(-c4ccccn4)cs3)CCNc3nc(-c4ccccn4)cs3)n2)nc1` [[L2Cu3]6+] here?
A: 54.5%

Q: And the “% Inhibition Run 2” value ([1]; MAP4K5)?
A: 51.4%

Q: And the “% Inhibition, Mean” value ([1]; MAP4K5)?
A: 53%

Q: What about the mean % activity ([1]; MAP4K5) of the same molecule?
A: 47%

Q: And the “% activity” value ([1]; MAP4K5, Run 1)?
A: 45.5%

Q: What about the “% activity” value ([1]; MAP4K5, Run 2) of the same molecule?
A: 48.6%

Q: And the “% Inhibition Run 1” value ([2]; ULK2)?
A: 48%

Q: And the “% Inhibition Run 2” value ([2]; ULK2)?
A: 52.6%

Q: And the “% Inhibition, Mean” value ([2]; ULK2)?
A: 50%

Q: And the mean % activity ([2]; ULK2)?
A: 50%

Q: What about the “% activity” value ([2]; ULK2, Run 1) of the same molecule?
A: 52%

Q: And the “% activity” value ([2]; ULK2, Run 2)?
A: 47.4%

Q: What about the “% Inhibition Run 1” value ([3]; NEK6) of the same molecule?
A: 34.4%

Q: And the “% Inhibition Run 2” value ([3]; NEK6)?
A: 27.1%

Q: What about the “% Inhibition, Mean” value ([3]; NEK6) of the same molecule?
A: 31%

Q: What about the mean % activity ([3]; NEK6) of the same molecule?
A: 69%

Q: What about the “% activity” value ([3]; NEK6, Run 1) of the same molecule?
A: 65.6%

Q: And the “% activity” value ([3]; NEK6, Run 2)?
A: 72.9%

Q: What about the “% Inhibition Run 1” value ([4]; PIM3) of the same molecule?
A: 54.7%

Q: And the “% Inhibition Run 2” value ([4]; PIM3)?
A: 54.9%

Q: And the “% Inhibition, Mean” value ([4]; PIM3)?
A: 55%

Q: What about the mean % activity ([4]; PIM3) of the same molecule?
A: 45%

Q: And the “% activity” value ([4]; PIM3, Run 1)?
A: 45.3%

Q: And the “% activity” value ([4]; PIM3, Run 2)?
A: 45.1%

Q: What about the “% Inhibition Run 1” value ([5]; SRPK1) of the same molecule?
A: 58.1%

Q: What about the “% Inhibition Run 2” value ([5]; SRPK1) of the same molecule?
A: 50.4%

Q: And the “% Inhibition, Mean” value ([5]; SRPK1)?
A: 54%

Q: And the mean % activity ([5]; SRPK1)?
A: 46%

Q: And the “% activity” value ([5]; SRPK1, Run 1)?
A: 41.9%

Q: And the “% activity” value ([5]; SRPK1, Run 2)?
A: 49.6%

Q: What about the “% Inhibition Run 1” value ([6]; PKD1) of the same molecule?
A: 73%

Q: And the “% Inhibition Run 2” value ([6]; PKD1)?
A: 71.7%

Q: What about the “% Inhibition, Mean” value ([6]; PKD1) of the same molecule?
A: 72%

Q: And the mean % activity ([6]; PKD1)?
A: 28%

Q: And the “% activity” value ([6]; PKD1, Run 1)?
A: 27%

Q: And the “% activity” value ([6]; PKD1, Run 2)?
A: 28.3%

Q: And the “% Inhibition Run 1” value ([7]; MNK1)?
A: 85.8%

Q: What about the “% Inhibition Run 2” value ([7]; MNK1) of the same molecule?
A: 80.4%

Q: And the “% Inhibition, Mean” value ([7]; MNK1)?
A: 83%

Q: And the mean % activity ([7]; MNK1)?
A: 17%

Q: What about the “% activity” value ([7]; MNK1, Run 1) of the same molecule?
A: 14.2%

Q: What about the “% activity” value ([7]; MNK1, Run 2) of the same molecule?
A: 19.6%

Q: For `CC(=O)[O-].CC(=O)[O-].CC(=O)[O-].CC(=O)[O-].CC(=O)[O-].CC(=O)[O-].[Zn+2].[Zn+2].[Zn+2].c1ccc(-c2csc(NCCN(CCNc3nc(-c4ccccn4)cs3)CCNc3nc(-c4ccccn4)cs3)n2)nc1.c1ccc(-c2csc(NCCN(CCNc3nc(-c4ccccn4)cs3)CCNc3nc(-c4ccccn4)cs3)n2)nc1` [[L2Zn3]6+], which “% Inhibition, Mean” value ([1]; MAP4K5) is on record?
A: 60%

Q: And the “% Inhibition, Run 1 / Run 2” value ([1]; MAP4K5)?
A: 60% and 59%

Q: And the mean % activity ([1]; MAP4K5)?
A: 40%

Q: What about the “% activity” value ([1]; MAP4K5, duplicate runs) of the same molecule?
A: 40% and 41%

Q: And the “% Activation, Mean value” ([2]; ULK2)?
A: 2%

Q: And the “% Inhibition, Mean” value ([2]; ULK2)?
A: -2%

Q: What about the mean % activity ([2]; ULK2) of the same molecule?
A: 102%

Q: What about the “% activity” value ([2]; ULK2, duplicate runs) of the same molecule?
A: 95% and 109%

Q: What about the “% Inhibition, Mean” value ([3]; NEK6) of the same molecule?
A: 22%

Q: What about the “% Inhibition, Run 1 / Run 2” value ([3]; NEK6) of the same molecule?
A: 25% and 20%

Q: And the mean % activity ([3]; NEK6)?
A: 78%

Q: And the “% activity” value ([3]; NEK6, duplicate runs)?
A: 75% and 81%

Q: What about the “% Inhibition, Mean” value ([4]; PIM3) of the same molecule?
A: 36%

Q: What about the “% Inhibition, Run 1 / Run 2” value ([4]; PIM3) of the same molecule?
A: 38% and 35%

Q: What about the mean % activity ([4]; PIM3) of the same molecule?
A: 64%

Q: And the “% activity” value ([4]; PIM3, duplicate runs)?
A: 62% and 65%

Q: And the “% Inhibition, Mean” value ([5]; SRPK1)?
A: 35%

Q: And the mean % activity ([5]; SRPK1)?
A: 66%

Q: And the “% activity” value ([5]; SRPK1, duplicate runs)?
A: 53% and 78%

Q: What about the “% Inhibition, Mean” value ([6]; PKD1) of the same molecule?
A: 45%

Q: And the “% Inhibition, Run 1 / Run 2” value ([6]; PKD1)?
A: 50% and 40%

Q: And the mean % activity ([6]; PKD1)?
A: 55%

Q: And the “% activity” value ([6]; PKD1, duplicate runs)?
A: 50% and 60%

Q: And the “% Activation, Mean value” ([7]; MNK1)?
A: 14%

Q: And the “% Inhibition, Mean” value ([7]; MNK1)?
A: -14%

Q: What about the “% Inhibition, Run 1 / Run 2” value ([7]; MNK1) of the same molecule?
A: -12% and -15%

Q: What about the mean % activity ([7]; MNK1) of the same molecule?
A: 114%

Q: And the “% Activity Run 1” value ([7]; MNK1, 10 µM)?
A: 112.0%

Q: And the “% Activity Run 2” value ([7]; MNK1, 10 µM)?
A: 115.0%

Q: And the “% activity” value ([7]; MNK1, duplicate runs)?
A: 112% and 115%
